According to the CheMixHub ionic liquid set:

Experiment: xn = mol fraction of the nth substance listed

CC(C)[C@H](NC(=O)CN)C(=O)O + CCCCCCCCCCCC[N+](C)(C)Cc1ccccc1.[Cl-] + O
electrical conductivity [S/m], 101 kPa
Settings | 293.15 K | 298.15 K | 303.15 K | 308.15 K | 313.15 K
x1 = 0.0008948, x2 = 0 | 0.00327 | 0.00375 | 0.00427 | 0.00485 | 0.0055
x1 = 0.001799, x2 = 0 | 0.00533 | 0.00608 | 0.0069 | 0.0078 | 0.00879

CCCC[n+]1ccccc1.F[B-](F)(F)F + CCCC[n+]1ccccc1.O=S(=O)([N-]S(=O)(=O)C(F)(F)F)C(F)(F)F
101 kPa, x2 = 0
Settings | viscosity [mPa·s]
303.15 K | 123.6
353.15 K | 17.7

CCCC[N+]1(C)CCCCC1.F[P-](F)(F)(F)(F)F + CCCC[N+]1(C)CCCC1.F[P-](F)(F)(F)(F)F
102 kPa
Settings | viscosity [mPa·s]
353.15 K, x1 = 0.5 | 154
383.15 K, x1 = 0.3 | 41

CCCCCC[n+]1ccn(C)c1.[Cl-] + O
Settings | electrical conductivity [S/m] | viscosity [mPa·s]
278.15 K, 100 kPa, x1 = 8.613e-05 | – | 1.531
278.15 K, 100 kPa, x1 = 0.0001839 | – | 1.539
278.15 K, 100 kPa, x1 = 0.0003576 | – | 1.551
278.15 K, 100 kPa, x1 = 0.0005405 | – | 1.562
278.15 K, 100 kPa, x1 = 0.000744 | – | 1.573
278.15 K, 100 kPa, x1 = 0.0009399 | – | 1.585
278.15 K, 100 kPa, x1 = 0.001103 | – | 1.596
278.15 K, 100 kPa, x1 = 0.001379 | – | 1.613
278.15 K, 100 kPa, x1 = 0.001677 | – | 1.641
283.15 K, 100 kPa, x1 = 8.613e-05 | – | 1.314
283.15 K, 100 kPa, x1 = 0.0001839 | – | 1.32
283.15 K, 100 kPa, x1 = 0.0003576 | – | 1.329
283.15 K, 100 kPa, x1 = 0.0005405 | – | 1.337
283.15 K, 100 kPa, x1 = 0.000744 | – | 1.348
283.15 K, 100 kPa, x1 = 0.0009399 | – | 1.358
283.15 K, 100 kPa, x1 = 0.001103 | – | 1.369
283.15 K, 100 kPa, x1 = 0.001379 | – | 1.381
283.15 K, 100 kPa, x1 = 0.001677 | – | 1.401
288.15 K, 100 kPa, x1 = 8.613e-05 | – | 1.145
288.15 K, 100 kPa, x1 = 0.0001839 | – | 1.15
288.15 K, 100 kPa, x1 = 0.0003576 | – | 1.158
288.15 K, 100 kPa, x1 = 0.0005405 | – | 1.166
288.15 K, 100 kPa, x1 = 0.000744 | – | 1.174
288.15 K, 100 kPa, x1 = 0.0009399 | – | 1.181
288.15 K, 100 kPa, x1 = 0.001103 | – | 1.188
288.15 K, 100 kPa, x1 = 0.001379 | – | 1.2
288.15 K, 100 kPa, x1 = 0.001677 | – | 1.219
293.15 K, 100 kPa, x1 = 8.613e-05 | – | 1.008
293.15 K, 100 kPa, x1 = 0.0001839 | – | 1.013
293.15 K, 100 kPa, x1 = 0.0003576 | – | 1.019
293.15 K, 100 kPa, x1 = 0.0005405 | – | 1.025
293.15 K, 100 kPa, x1 = 0.000744 | – | 1.033
293.15 K, 100 kPa, x1 = 0.0009399 | – | 1.039
293.15 K, 100 kPa, x1 = 0.001103 | – | 1.044
293.15 K, 100 kPa, x1 = 0.001379 | – | 1.054
293.15 K, 100 kPa, x1 = 0.001677 | – | 1.069
298.15 K, 100 kPa, x1 = 0.0001839 | – | 0.899
298.15 K, 100 kPa, x1 = 0.0003576 | – | 0.905
298.15 K, 100 kPa, x1 = 0.0005405 | – | 0.911
298.15 K, 100 kPa, x1 = 0.000744 | – | 0.917
298.15 K, 100 kPa, x1 = 0.0009399 | – | 0.922
298.15 K, 100 kPa, x1 = 0.001103 | – | 0.928
298.15 K, 100 kPa, x1 = 0.001379 | – | 0.936
298.15 K, 100 kPa, x1 = 0.001677 | – | 0.949
298.15 K, 101.3 kPa, x1 = 4.23e-06 | 0.00276 | –
298.15 K, 101.3 kPa, x1 = 7.11e-06 | 0.00451 | –
298.15 K, 101.3 kPa, x1 = 1.01e-05 | 0.00631 | –
298.15 K, 101.3 kPa, x1 = 1.293e-05 | 0.008 | –
298.15 K, 101.3 kPa, x1 = 1.551e-05 | 0.00953 | –
298.15 K, 101.3 kPa, x1 = 1.836e-05 | 0.01121 | –
298.15 K, 101.3 kPa, x1 = 2.116e-05 | 0.0129 | –
298.15 K, 101.3 kPa, x1 = 2.393e-05 | 0.0145 | –
298.15 K, 101.3 kPa, x1 = 2.652e-05 | 0.016 | –
298.15 K, 101.3 kPa, x1 = 2.919e-05 | 0.0175 | –
303.15 K, 100 kPa, x1 = 8.613e-05 | – | 0.802
303.15 K, 100 kPa, x1 = 0.0001839 | – | 0.805
303.15 K, 100 kPa, x1 = 0.0003576 | – | 0.81
303.15 K, 100 kPa, x1 = 0.0005405 | – | 0.815
303.15 K, 100 kPa, x1 = 0.000744 | – | 0.82
303.15 K, 100 kPa, x1 = 0.0009399 | – | 0.825
303.15 K, 100 kPa, x1 = 0.001103 | – | 0.829
303.15 K, 100 kPa, x1 = 0.001379 | – | 0.836
303.15 K, 100 kPa, x1 = 0.001677 | – | 0.847
308.15 K, 100 kPa, x1 = 8.613e-05 | – | 0.723
308.15 K, 100 kPa, x1 = 0.0001839 | – | 0.726
308.15 K, 100 kPa, x1 = 0.0003576 | – | 0.73
308.15 K, 100 kPa, x1 = 0.0005405 | – | 0.734
308.15 K, 100 kPa, x1 = 0.000744 | – | 0.739
308.15 K, 100 kPa, x1 = 0.0009399 | – | 0.743
308.15 K, 100 kPa, x1 = 0.001103 | – | 0.747
308.15 K, 100 kPa, x1 = 0.001379 | – | 0.753
308.15 K, 100 kPa, x1 = 0.001677 | – | 0.762
313.15 K, 100 kPa, x1 = 8.613e-05 | – | 0.656
313.15 K, 100 kPa, x1 = 0.0001839 | – | 0.659
313.15 K, 100 kPa, x1 = 0.0003576 | – | 0.662
313.15 K, 100 kPa, x1 = 0.0005405 | – | 0.666
313.15 K, 100 kPa, x1 = 0.000744 | – | 0.67
313.15 K, 100 kPa, x1 = 0.0009399 | – | 0.673
313.15 K, 100 kPa, x1 = 0.001103 | – | 0.677
313.15 K, 100 kPa, x1 = 0.001379 | – | 0.683
313.15 K, 100 kPa, x1 = 0.001677 | – | 0.691
